Read-outs that look alike come from different tables or passages of the source.
What was measured:
SARS-CoV-2 3CL protease = SARS-CoV-2 3CL protease (Severe acute respiratory syndrome coronavirus 2, UniProt P0DTD1); assay: Inhibitory activity test against SARS-CoV-2 3CL proteases; format: biochemical
SARS-CoV-2 = assay: Inhibitory activity of cytopathic effect (CPE) in HEK293T/ACE2-TMPRSS2 cells; format: cell-based; settings: Severe acute respiratory syndrome coronavirus 2, HEK-293T, 72 h
[1] = read-out: IC50 (50% SARS-CoV-2 3CL protease inhibitory concentration)
[2] = HEK293T/ACE2-TMPRSS2 cells, cultured 3 days, CellTiter-Glo 2.0 luminescence, read-out: EC50 (50% SARS-CoV-2 infected cell death inhibitory concentration)
[3] = 50% SARS-CoV-2 infected cell death inhibitory concentration, HEK293T/ACE2-TMPRSS2 cells, CellTiter-Glo 2.0 after 3 days culture, read-out: EC50
[4] = IC50 (50% SARS-CoV-2 3CL protease inhibitory concentration)
[5] = read-out: EC50 (50% SARS-CoV-2 infected cell death inhibitory concentration)

Compound: COc1nc(N2CC[C@@H](C#N)C2)cc2c1c(=O)n(-c1cnc3cc(F)ccn13)c(=O)n2-c1ccc(F)c(C(F)F)c1 [Compound I-0958]
- IC50 (SARS-CoV-2 3CL protease; [1]): < 100 nM
- EC50 (SARS-CoV-2; [2]): < 100 nM

Compound: Cn1cnc(Cn2c(=O)c3c4nccnc4c(-c4cc(C#N)ccc4Cl)cc3n(Cc3cc(F)c(F)c(F)c3)c2=O)n1 [Compound I-0934]
- IC50 (SARS-CoV-2 3CL protease; [1]): < 100 nM
- EC50 (SARS-CoV-2; [2]): < 100 nM

Compound: COc1nc2c(=O)n(Cc3ncn(C)n3)c(=O)n(Cc3cc(F)c(F)c(Cl)c3)c2cc1-c1ncc(F)cc1Cl [Compound I-0578]
- IC50 (SARS-CoV-2 3CL protease; [1]): < 100 nM
- EC50 (SARS-CoV-2; [2]): < 100 nM

Compound: COc1nc(N2CC[C@@H](O)C2)cc2c1c(=O)n(-c1cncc(C#N)c1)c(=O)n2-c1ccc(F)c(F)c1 [Compound I-1027]
- IC50 (SARS-CoV-2 3CL protease; [1]): < 100 nM
- EC50 (SARS-CoV-2; [2]): < 100 nM

Compound: COc1nc(N2CC[C@@H](O)C2)cc2c1c(=O)n(-c1cncc(Cl)c1)c(=O)n2-c1ccc(F)c(Cl)c1 [Compound I-0944]
- IC50 (SARS-CoV-2 3CL protease; [1]): < 100 nM
- EC50 (SARS-CoV-2; [2]): < 100 nM

Compound: Cn1cnc(Cn2c(=O)c3c4nccnc4c(-c4cc(C(C)(C)O)c(F)cc4Cl)cc3n(Cc3cc(F)c(F)c(Cl)c3)c2=O)n1 [Compound I-0815]
- IC50 (SARS-CoV-2 3CL protease; [1]): < 100 nM
- EC50 (SARS-CoV-2; [2]): < 100 nM

Compound: COc1nc(N2CC[C@@H](C#N)C2)cc2c1c(=O)n(-c1cncc(Cl)c1)c(=O)n2-c1ccc(F)c(Cl)c1 [Compound I-0936]
- IC50 (SARS-CoV-2 3CL protease; [1]): 1.1 nM
- EC50 (SARS-CoV-2; [3]): 5.34 nM

Compound: COc1nc(N2CC(C#N)C2)cc2c1c(=O)n(-c1cnc3cc(F)ccn13)c(=O)n2-c1ccc(F)c(Cl)c1 [Compound I-1017]
- IC50 (SARS-CoV-2 3CL protease; [1]): < 100 nM
- EC50 (SARS-CoV-2; [2]): < 100 nM

Compound: COc1nc(-c2c(Cl)ccc3c2CCN(C)C3=O)cc2c1c(=O)n(Cc1ncn(C)n1)c(=O)n2Cc1cc(F)c(F)c(Cl)c1 [Compound I-0874]
- IC50 (SARS-CoV-2 3CL protease; [1]): 9.4 nM
- EC50 (SARS-CoV-2; [3]): 39.2 nM

Compound: Cn1cnc(Cn2c(=O)c3c(cc(-c4cc(C#N)ccc4Cl)n4ccnc34)n(Cc3cc(F)c(F)c(F)c3)c2=O)n1 [Compound I-0642]
- IC50 (SARS-CoV-2 3CL protease; [1]): 3 nM
- EC50 (SARS-CoV-2; [3]): 640 nM

Compound: COc1nc2c(=O)n(Cc3ncn(C)n3)c(=O)n(Cc3cc(F)c(F)c(Cl)c3)c2cc1-c1cc2c(cc1Cl)NC(=O)C2 [Compound I-0700]
- IC50 (SARS-CoV-2 3CL protease; [1]): 0.92 nM
- EC50 (SARS-CoV-2; [3]): 24.5 nM

Compound: Cn1cnc(Cn2c(=O)c3c4c(c(N5CCC(F)(F)CC5)cc3n(Cc3cc(F)c(F)c(F)c3)c2=O)CCO4)n1 [Compound I-0565]
- IC50 (SARS-CoV-2 3CL protease; [1]): < 100 nM
- EC50 (SARS-CoV-2; [2]): < 100 nM

Compound: COc1nc(N2[C@@H]3CC[C@H]2CNC3)cc2c1c(=O)n(-c1cnc3cc(F)ccn13)c(=O)n2Cc1cc(F)c(F)c(F)c1 [Compound I-0682]
- IC50 (SARS-CoV-2 3CL protease; [4]): < 100 nM
- EC50 (SARS-CoV-2; [5]): < 100 nM

Compound: COc1nc(N2CC(O)(C(F)(F)F)C2)cc2c1c(=O)n(-c1cnc3cc(F)ccn13)c(=O)n2-c1ccc(F)c(Cl)c1 [Compound I-0753]
- IC50 (SARS-CoV-2 3CL protease; [1]): 21 nM
- EC50 (SARS-CoV-2; [3]): 35.7 nM

Compound: COc1ccc(Cl)c(-c2cc(OC)c3c(=O)n(Cc4ncn(C)n4)c(=O)n(Cc4cc(F)c(F)c(F)c4)c3c2)n1 [Compound I-0895]
- IC50 (SARS-CoV-2 3CL protease; [1]): < 100 nM
- EC50 (SARS-CoV-2; [2]): 100 to 1000 nM

Compound: COc1cc(-n2c(=O)n(Cc3ncn(C)n3)c(=O)c3c(OC)nc(N4CC[C@@H](F)C4)cc32)cc(Cl)c1F [Compound I-0804]
- IC50 (SARS-CoV-2 3CL protease; [1]): < 100 nM
- EC50 (SARS-CoV-2; [2]): < 100 nM

Compound: COc1nc(N2C[C@@H]3C[C@H]2CO3)cc2c1c(=O)n(-c1cncc(F)c1)c(=O)n2-c1ccc(F)c(F)c1 [Compound I-1030]
- IC50 (SARS-CoV-2 3CL protease; [1]): < 100 nM
- EC50 (SARS-CoV-2; [2]): < 100 nM

Compound: COc1nc(N2CC[C@@H](CO)C2)cc2c1c(=O)n(-c1cnc3cc(F)ccn13)c(=O)n2-c1ccc(F)c(Cl)c1 [Compound I-0750]
- IC50 (SARS-CoV-2 3CL protease; [1]): 6.1 nM
- EC50 (SARS-CoV-2; [3]): 25.9 nM

Compound: COc1cc(-c2ncc(N)cc2Cl)cc2c1c(=O)n(Cc1ncn(C)n1)c(=O)n2Cc1cc(F)c(F)c(F)c1 [Compound I-0834]
- IC50 (SARS-CoV-2 3CL protease; [1]): < 100 nM
- EC50 (SARS-CoV-2; [2]): < 100 nM

Compound: COc1nc(N2[C@H]3CC[C@@H]2[C@@H](O)C3)cc2c1c(=O)n(Cc1ncn(C)n1)c(=O)n2Cc1cc(F)c(F)c(F)c1 [Compound I-0602]
- IC50 (SARS-CoV-2 3CL protease; [4]): < 100 nM
- EC50 (SARS-CoV-2; [5]): < 100 nM

Compound: [2H]C([2H])([2H])O[C@@H]1CCN(c2cc3c(c(OC)n2)c(=O)n(-c2cncc(OC(F)F)c2)c(=O)n3-c2ccc(F)c(F)c2)C1 [Compound I-1038]
- IC50 (SARS-CoV-2 3CL protease; [1]): < 100 nM
- EC50 (SARS-CoV-2; [2]): < 100 nM
